“And” between values parts separate entries of the source, which are not always exact repeats. Equal values may be shown once. “Also recorded” adds a separate entry of the source. Read-outs that look alike come from different tables or passages of the source.

One may read the IC50 as the concentration at which inhibition is half-maximal. What is called Ki is a measure of affinity in units of concentration, obtained from inhibition or displacement.

One experiment concerns the target TC-PTP (Homo sapiens (Human), UniProt P17706). Put plainly: PTP activity assay with pNPP substrate, TC-PTP. The experiment is classed as biochemical. Conditions: for IC50: 0.04 nM TC-PTP. As for the experimental part:
The PTP activity was assayed using p-nitrophenyl phosphate (pNPP) as a substrate in DMG buffer at 25° C. […] The reaction rate was measure using a SPECTRAMAX microplate spectrophotometer (Molecular Devices). For the determination of Km, the initial velocity and substrate concentration data were fitted to Michaelis-Menten equation using SIGMAPLOT. […] The assays were performed in 96-well plates. […] The reaction rate was measured using a Spectra Max Plus 384 Microplate Spectrophotometer (Molecular Devices). […] The reactions were incubated at room temperature for 30 min and quenched with 5N NaOH. The absorbance at 405 nm was read on the SpectraMax Plus 384 Microplate Spectrophotometer. For the reversibility test, the enzyme was incubated with the inhibitor at room temperature for 30 min before pNPP was added to initiate the reaction. The reaction was then incubated at room temperature for 30 min and quenched and read. […] Data were fitted using SigmaPlot Enzyme Kinetics Module (Systat Software, Inc.)

The target in a further experiment is Lyp (Homo sapiens (Human), UniProt Q9Y2R2). As to the kind of experiment: PTP selectivity panel (pNPP), Lyp. The experiment is classed as biochemical. Particulars: Table 3. How it is done: (§1) PTP activity was assayed using p-nitrophenyl phosphate (pNPP) as a substrate in DMG buffer (50 mM DMG, pH 7.0, 1 mM EDTA, 150 mM NaCl, 2 mM DTT, 0.1 mg/mL BSA) at 25° C. The assays were performed in 96-well plates. Normally, to determine the IC50 values, the reaction was initiated by the addition of enzyme (final concentration of 10 nM) to a reaction mixture (0.2 mL) containing 2 mM (Km for the substrate) pNPP with various concentrations of inhibitors. The reaction rate was measured using a Spectra Max Plus 384 Microplate Spectrophotometer (Molecular Devices). For compound 10, the final TC-PTP concentration was 0.04 nM. The reactions were incubated at room temperature for 30 min and quenched with 5N NaOH. The absorbance at 405 nm was read on the SpectraMax Plus 384 Microplate Spectrophotometer. For the reversibility test, the enzyme was incubated with the inhibitor at room temperature for 30 min before pNPP was added to initiate the reaction. The reaction was then incubated at room temperature for 30 min and quenched and read. […] To determine the mode of inhibition, the reactions were initiated by the additional enzyme (final concentration for TC-PTP was 0.4 nM and for PTP was 2 nM) to the reaction mixtures (0.2 mL) containing various concentrations of pNPP with different concentrations of the inhibitor. Data were fitted using SigmaPlot Enzyme Kinetics Module (Systat Software, Inc.)
Sequence of Lyp (Q9Y2R2 whole entry, species assumed): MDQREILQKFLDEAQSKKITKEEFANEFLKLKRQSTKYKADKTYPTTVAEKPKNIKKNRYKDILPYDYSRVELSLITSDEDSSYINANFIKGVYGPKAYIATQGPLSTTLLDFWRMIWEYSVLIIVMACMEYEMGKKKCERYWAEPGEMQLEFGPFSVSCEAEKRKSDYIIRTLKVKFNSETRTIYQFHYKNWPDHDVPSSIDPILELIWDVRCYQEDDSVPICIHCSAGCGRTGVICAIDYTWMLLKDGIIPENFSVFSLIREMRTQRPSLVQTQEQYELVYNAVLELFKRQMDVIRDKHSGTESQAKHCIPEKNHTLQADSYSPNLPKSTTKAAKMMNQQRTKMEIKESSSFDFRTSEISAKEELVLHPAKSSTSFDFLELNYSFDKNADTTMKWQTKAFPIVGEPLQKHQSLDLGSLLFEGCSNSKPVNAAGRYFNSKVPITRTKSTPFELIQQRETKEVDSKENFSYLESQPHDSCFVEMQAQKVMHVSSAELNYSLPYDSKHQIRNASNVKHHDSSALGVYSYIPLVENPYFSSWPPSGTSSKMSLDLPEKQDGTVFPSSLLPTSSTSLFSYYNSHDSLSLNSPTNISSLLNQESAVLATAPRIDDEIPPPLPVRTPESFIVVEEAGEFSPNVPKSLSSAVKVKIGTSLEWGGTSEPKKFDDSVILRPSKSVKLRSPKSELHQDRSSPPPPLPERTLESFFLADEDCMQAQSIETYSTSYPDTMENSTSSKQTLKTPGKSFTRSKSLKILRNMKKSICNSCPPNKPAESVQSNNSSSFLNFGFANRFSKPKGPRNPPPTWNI

The target in the next experiment is PTP-Meg2 (Homo sapiens (Human), UniProt P43378). Put plainly: PTP selectivity panel (pNPP), PTP-Meg2. The experiment is classed as biochemical. Conditions: Table 3. As for the experimental part:
as §1

Another experiment has as its target CD45 (Homo sapiens (Human), UniProt P08575). Put plainly: PTP selectivity panel (pNPP), CD45. Particulars: Table 3. The experiment is classed as biochemical. As for the experimental part:
as §1

Another experiment addresses VHX (Homo sapiens (Human), UniProt Q9NRW4). As to the kind of experiment: PTP selectivity panel (pNPP), VHX. Particulars: Table 3. The experiment is classed as biochemical. How it is done:
as §1

Experiment [1] concerns EGFR phosphorylation in PTP1B−/− mouse embryo fibroblast cells. As to the kind of experiment: Effect of TC-PTP inhibitor on EGFR phosphorylation (anti-pTyr immunoblot). The experiment is classed as cell-based. Conditions: 2 h; for increase in EGFR phosphorylation compared to DMSO: EGF 2 ng/ml 10 min. As for the experimental part: To determine the cellular efficacy of 10, its effect on tyrosine phosphorylation of EGFR, a known substrate of TC-PTP (Tiganis et al., 1998; Klingler-Hoffmann et al., 2001; Mattila et al., 2005) was assessed using an antibody against pTyr. The cells were incubated with 10 for 2 hr and subsequently treated either with or without EGF (2 ng/ml) for 10 min.
PTP1B^−/− cells were treated with TC-PTP inhibitor at indicated concentration for 2 h before EGF treatment. After EGF treatment (2 ng/ml) for 10 min, cells were lysed in 10 mM HEPES, pH 7.4, 150 mM NaCl, 10% Glycerol, 10 mM sodium phosphate, 10 mM sodium fluoride, 1 mM sodium pervanadate, 1 mM benzamidine, 1% Triton X-100, 10 μg/ml leupeptin, and 5 μg/ml aprotinin. Cell lysates were cleared by centrifugation at 15,000 rpm for 10 min. The lysate protein concentration was estimated using the BCA protein assay kit (PIERCE). To detect EGFR phosphorylation levels, 10 μg of anti-EGFR antibody (CELL SIGNALING, #2232) was added to 1 mg of cell lysate and incubated at 4° C. for 2 h. […] of protein A/G-agarose beads were then added and incubated for another 2 h. After extensive washing, the protein complex was boiled with sample buffer, separated by SDS-PAGE, transferred electrophoretically to PVDF membrane, and immunoblotted with anti-pTyr antibodies (MILLIPORE, #05-1050) followed by incubation with horseradish peroxidase-conjugated secondary antibodies. The blots were developed by the enhanced chemiluminescence technique (ECL kit, AMERSHAM BIOSCIENCES).
PTP1B^−/− mouse embryo fibroblast cells were treated with TC-PTP inhibitor at the indicated concentration for 2 h prior to EGF treatment. After EGF treatment (2 ng/mL) for 10 min, cells were lysed in 10 mM HNEPES, pH 7.4, […], 10% Glycerol, 10 mM sodium phosphate, 10 mM sodium fluoride, 1 mM sodium pervanadate, 1 mM benzamidine, 1% Triton X-100, 10 μg/mL leupeptin, and 5 μg/mL aprotinin. Cell lysates were cleared by centrifugation at 15 000 rpm for 10 min. The lysate protein concentration was estimated using the BAC protein assay kit (Pierce). To detect EGFR phosphorylation levels, 10 μg of anti-EGFR antibody (Cell Signaling, #2232) were added to 1 mg of cell lysate and incubated at 4° C. for 2 h. 20 μL of protein A/G-agarose beads were then added and incubated for another 2 hr. After extensive washing, the protein complex was boiled with sample buffer, separated by SDS-PAGE, transferred electrophoretically to a PVDF membrane, and immunoblotted with anti-pTyr antibodies (Millipore, #5-1050) followed by incubation with horseradish peroxidase conjugalated secondary antibodies. The blots were developed by enhanced chemiluminescence technique (ECL kit, Amersham Biosciences).
The cellular efficacy of compound 10 was assessed by examining its effect on tyrosine phosphorylation of EGFR, a known substrate of TC-PTP. Referring now to FIG. 2 B. PTP1B^−/− mouse embryo filbroblast cells were incubated with compound 10 at various concentrations for 2 h and subsequently treated either with or without EGF (2 ng/mL) for 10 min Inhibition of TC-PTP is expected to enhance endrogenous levels of phosphorylated EGFR. […] Remarkably, the phosphorylated form of EGFR is increased nearly 2-fold even at an inhibitor concentration of 5 nM (1.2×Ki).

Sequence of TC-PTP (P17706 whole entry): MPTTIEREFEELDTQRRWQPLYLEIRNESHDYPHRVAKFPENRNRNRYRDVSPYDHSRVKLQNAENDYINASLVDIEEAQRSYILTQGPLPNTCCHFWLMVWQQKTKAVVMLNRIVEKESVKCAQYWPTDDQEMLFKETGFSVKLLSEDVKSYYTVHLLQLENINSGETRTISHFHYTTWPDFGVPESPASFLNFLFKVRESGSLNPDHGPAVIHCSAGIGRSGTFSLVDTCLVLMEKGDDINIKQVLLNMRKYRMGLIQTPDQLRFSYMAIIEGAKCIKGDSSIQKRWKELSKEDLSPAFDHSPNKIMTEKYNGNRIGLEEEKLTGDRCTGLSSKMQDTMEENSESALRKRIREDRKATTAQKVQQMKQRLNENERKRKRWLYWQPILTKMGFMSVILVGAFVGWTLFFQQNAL
Sequence of VHX (Q9NRW4 whole entry): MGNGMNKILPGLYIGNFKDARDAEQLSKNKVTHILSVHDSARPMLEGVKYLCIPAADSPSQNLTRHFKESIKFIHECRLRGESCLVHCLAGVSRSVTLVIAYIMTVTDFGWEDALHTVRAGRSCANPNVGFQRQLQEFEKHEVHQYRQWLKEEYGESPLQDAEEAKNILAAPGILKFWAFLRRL
Sequence of CD45 (P08575 26-1306, species assumed): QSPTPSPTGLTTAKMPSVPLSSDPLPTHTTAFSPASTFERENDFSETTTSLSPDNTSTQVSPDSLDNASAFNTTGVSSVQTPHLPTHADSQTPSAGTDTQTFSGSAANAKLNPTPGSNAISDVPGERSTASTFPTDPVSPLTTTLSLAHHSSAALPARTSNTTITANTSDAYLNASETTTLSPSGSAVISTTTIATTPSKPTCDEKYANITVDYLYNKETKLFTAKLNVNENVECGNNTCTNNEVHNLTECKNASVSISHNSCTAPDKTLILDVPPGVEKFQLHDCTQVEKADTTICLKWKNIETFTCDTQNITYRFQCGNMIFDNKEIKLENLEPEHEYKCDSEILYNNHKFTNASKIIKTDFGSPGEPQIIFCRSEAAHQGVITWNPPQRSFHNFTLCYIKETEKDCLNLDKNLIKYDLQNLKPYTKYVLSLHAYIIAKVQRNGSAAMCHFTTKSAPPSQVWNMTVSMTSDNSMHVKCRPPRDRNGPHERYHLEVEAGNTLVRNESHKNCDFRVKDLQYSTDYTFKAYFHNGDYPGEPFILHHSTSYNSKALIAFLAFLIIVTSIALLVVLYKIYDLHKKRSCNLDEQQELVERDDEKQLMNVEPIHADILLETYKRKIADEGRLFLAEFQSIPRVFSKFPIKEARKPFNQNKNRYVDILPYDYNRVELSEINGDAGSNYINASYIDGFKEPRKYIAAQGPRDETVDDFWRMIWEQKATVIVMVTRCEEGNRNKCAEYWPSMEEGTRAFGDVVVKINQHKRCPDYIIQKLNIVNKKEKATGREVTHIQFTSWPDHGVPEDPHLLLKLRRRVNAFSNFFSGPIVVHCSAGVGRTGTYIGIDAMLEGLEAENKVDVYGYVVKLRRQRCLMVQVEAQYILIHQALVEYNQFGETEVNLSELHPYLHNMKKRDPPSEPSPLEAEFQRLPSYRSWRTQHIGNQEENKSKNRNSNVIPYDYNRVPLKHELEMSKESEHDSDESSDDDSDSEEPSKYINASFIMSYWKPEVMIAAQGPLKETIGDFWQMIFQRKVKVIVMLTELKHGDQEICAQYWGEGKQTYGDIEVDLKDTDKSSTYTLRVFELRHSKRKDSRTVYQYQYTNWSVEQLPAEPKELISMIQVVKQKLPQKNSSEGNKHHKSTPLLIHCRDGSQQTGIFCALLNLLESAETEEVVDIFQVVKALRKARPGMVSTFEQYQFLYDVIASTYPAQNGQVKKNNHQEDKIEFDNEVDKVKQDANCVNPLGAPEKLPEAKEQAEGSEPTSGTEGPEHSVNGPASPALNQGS
Sequence of PTP-Meg2 (P43378 whole entry): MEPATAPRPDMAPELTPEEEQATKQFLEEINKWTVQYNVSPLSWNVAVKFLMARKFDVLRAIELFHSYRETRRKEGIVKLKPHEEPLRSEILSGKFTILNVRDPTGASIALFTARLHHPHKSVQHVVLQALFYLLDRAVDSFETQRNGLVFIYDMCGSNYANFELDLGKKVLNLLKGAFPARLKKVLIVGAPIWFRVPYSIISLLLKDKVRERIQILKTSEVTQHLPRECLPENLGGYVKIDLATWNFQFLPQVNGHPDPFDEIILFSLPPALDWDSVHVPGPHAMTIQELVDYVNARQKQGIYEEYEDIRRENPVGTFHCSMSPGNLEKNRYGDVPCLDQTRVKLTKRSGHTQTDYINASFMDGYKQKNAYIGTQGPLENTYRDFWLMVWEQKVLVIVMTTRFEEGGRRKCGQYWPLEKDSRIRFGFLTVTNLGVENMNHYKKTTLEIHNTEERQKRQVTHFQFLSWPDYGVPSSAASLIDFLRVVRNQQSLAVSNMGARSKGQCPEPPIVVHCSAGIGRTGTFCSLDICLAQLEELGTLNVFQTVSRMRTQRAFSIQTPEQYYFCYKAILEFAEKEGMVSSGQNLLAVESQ

Take `CCc1ccc(C(=O)NCCCCC(NC(=O)C(Cc2ccc(C(F)(F)P(=O)(O)O)cc2)NC(=O)C(Cc2ccccc2)NC(=O)COC2CC(C)CCC2C(C)C)C(N)=O)cc1` (stereo not shown) [Compound 10]: the IC50 against TC-PTP (IC50 with TC-PTP preincubation, enzyme preincubated with inhibitor 30 min) turned out to be 8.7 ± 1.4 nM; against TC-PTP (IC50 without TC-PTP preincubation, no preincubation), 9.2 ± 1.4 nM. Besides, the “selectivity for TC-PTP over PTP1B” value at TC-PTP (TC-PTP versus PTP1B) is 8 fold and 5.6 fold. In addition, the inhibitory constant (Ki) is 4.3 ± 0.2 nM on TC-PTP (Table 3, Example 13, read-out: Ki (TC-PTP)); 4.1 ± 0.2 nM at TC-PTP (tight binding inhibition equation, Table 1, read-out: Ki for TC-PTP); greater than 1000 nM on Lyp; greater than 1000 nM on PTP-Meg2; greater than 1000 nM on CD45; greater than 1000 nM on VHX. Also, at TC-PTP (kinetic analysis), the “mode of inhibition of TC-PTP” value is “reversible TC-PTP inhibitor; also recorded: reversible and competitive inhibitor”. Moreover, the “selectivity versus a panel of PTPs” value at TC-PTP (versus SHP2, Lyp, HePTP, PTP-Meg2, FAP1, CD45, LAR, PTPa, VHR, VHX, CDC14A, low molecular weight PTP) is “more than 200 fold”. Also, in experiment [1] (0-50 nM), the “effect on EGFR phosphorylation, dose dependence” value is listed as “enhanced EGFR phosphorylaltion in a dose-dependent fashion; also recorded: augmented EGFR phosphorylation in a dose dependent manner”. The “increase in EGFR phosphorylation compared to DMSO” value is ~2 fold and 1.9 fold in experiment [1] (5 nM); 3.4 fold in experiment [1] (10 nM); 3.9 fold in experiment [1] (20 nM); 5.0 fold in experiment [1] (50 nM).

Source of the values: US9217012B2, “Inhibitors of protein tyrosine phosphatases” (Indiana University Research and Technology Corporation, priority 2009, dated 2015).
